According to patent US8217055B2, “Pyrido-pyrazine derivatives useful as herbicidal compounds” (Syngenta Crop Protection LLC, priority 2006, dated 2012):

Tests used:
Experiment in all cases: Example B2 herbicidal action, post-emergence, pots in glasshouse, evaluated after 13 days (10=total damage to plant; 0=no damage to plant)
Assay type in all cases: in vivo
Conditions in all cases: rate 1000 g/ha
Amaranthus retroflexus = test system: Amaranthus retroflexus
Description: (§1) Seeds of a variety of test species were sown in standard soil in pots. After 8 days cultivation (post-emergence) under controlled conditions in a glasshouse (at 24/16° C., day/night; 14 hours light; 65% humidity), the plants were sprayed with an aqueous spray solution derived from the formulation of the technical active ingredient in acetone/water (50:50) solution containing 0.5% Tween 20 (polyoxyethelyene sorbitan monolaurate, CAS RN 9005-64-5). The test plants were then grown in a glasshouse under controlled conditions in a glasshouse (at 24/16° C., day/night; 14 hours light; 65% humidity) and watered twice daily. After 13 days, the test was evaluated (10=total damage to plant; 0=no damage to plant).

Echinochloa crus-galli = test system: Echinochloa crus-galli
Description: as §1

Setaria faberi = test system: Setaria faberi
Description: as §1

Solanum nigrum = test system: Solanum nigrum
Description: as §1

Ipomea hederaceae = test system: Ipomea hederaceae
Description: as §1

SMILES	AMARE damage score (10=total damage to plant; 0=no damage to plant) (Amaranthus retroflexus)	ECHCG damage score (10=total damage to plant; 0=no damage to plant) (Echinochloa crus-galli)	SETFA damage score (10=total damage to plant; 0=no damage to plant) (Setaria faberi)	SOLNI damage score (10=total damage to plant; 0=no damage to plant) (Solanum nigrum)	IPOHE damage score (10=total damage to plant; 0=no damage to plant) (Ipomea hederaceae)
CC(C)(C)C(=O)Oc1c(-c2c(Cl)cc(C(F)(F)F)cc2Cl)c(=O)n(CC(F)F)c2nccnc12 [A9]	10	7	9	10	–
CC(C)(C)C(=O)Oc1c(-c2ccc(C(F)(F)F)cc2Br)c(=O)n(CC(F)F)c2nccnc12 [A10]	10	4	3	9	5
CC(C)(C)C(=O)Oc1c(-c2c(Cl)cc(OC(F)(F)F)cc2Cl)c(=O)n(CC(F)F)c2nccnc12 [A11]	10	9	9	10	10
CCc1cc(C)cc(CC)c1-c1c(OC(=O)C(C)C)c2nccnc2n(CC(F)F)c1=O [A12]	3	9	10	10	9
CC(C)C(=O)Oc1c(-c2cc(F)ccc2Cl)c(=O)n(CC(F)F)c2nccnc12 [A13]	10	8	9	10	10
CC(C)(C)C(=O)Oc1c(-c2cc(F)ccc2Cl)c(=O)n(CC(F)F)c2nccnc12 [A14]	10	7	9	10	10
COc1cccc(-c2c(OC(=O)C(C)C)c3nccnc3n(CC(F)F)c2=O)c1OC [A15]	6	8	9	10	9
COc1cccc(-c2c(OC(=O)C(C)(C)C)c3nccnc3n(CC(F)F)c2=O)c1OC [A16]	8	3	8	10	7
CC(C)(C)C(=O)Oc1c(-c2cc(F)c(Cl)cc2Cl)c(=O)n(CC(F)F)c2nccnc12 [A17]	3	6	7	5	0
CC(C)(C)C(=O)Oc1c(-c2c(F)ccc(Br)c2Cl)c(=O)n(CC(F)F)c2nccnc12 [A19]	10	7	8	10	9
CC(C)C(=O)Oc1c(-c2cc(F)c(Cl)cc2Cl)c(=O)n(CC(F)F)c2nccnc12 [A20]	10	7	8	9	7
COc1ccc(OC(F)(F)F)cc1-c1c(OC(=O)C(C)C)c2nccnc2n(CC(F)F)c1=O [A23]	10	8	9	10	9
Cc1cc(C)c(-c2c(OC(=O)C(C)(C)C)c3nccnc3n(CC(F)F)c2=O)c(C)c1 [A25]	7	7	7	10	8
CC(C)C(=O)Oc1c(-c2ccccc2OC(F)F)c(=O)n(CC(F)F)c2nccnc12 [A26]	10	2	2	5	5
COc1ccc(OC(F)(F)F)cc1-c1c(OC(=O)C(C)(C)C)c2nccnc2n(CC(F)F)c1=O [A27]	9	7	7	9	7
CC(C)(C)C(=O)Oc1c(-c2ccccc2OC(F)F)c(=O)n(CC(F)F)c2nccnc12 [A28]	9	1	3	10	8
CC(C)(C)C(=O)Oc1c(-c2c(F)ccc(Cl)c2Cl)c(=O)n(CC(F)F)c2nccnc12 [A32]	10	4	7	10	9
CC(C)(C)C(=O)Oc1c(-c2cc(F)c(F)cc2Cl)c(=O)n(CC(F)F)c2nccnc12 [A33]	10	4	7	10	7
CC(C)(C)C(=O)Oc1c(-c2c(F)cccc2Cl)c(=O)n(CC(F)F)c2nccnc12 [A34]	10	4	6	10	9
CC(C)(C)C(=O)Oc1c(-c2cc(Cl)ccc2C(F)(F)F)c(=O)n(CC(F)F)c2nccnc12 [A37]	6	5	7	5	7
COc1ccc(Br)cc1-c1c(OC(=O)C(C)(C)C)c2nccnc2n(CC(F)F)c1=O [A38]	10	6	8	9	6
